Legend:
TrCel6A = target: T1, TrCel6A (Trichoderma reesei, UniProt P07987); experiment: Cellobiose inhibition of synergistic hydrolysis of 14C-BC by TrCel6A and EG TrCel5A; type: biochemical
T1 construct: TrCel6A was purified from the culture filtrate of Tr QM 9414 as described previously; made in house; host or cells: Trichoderma reesei QM 9414 culture filtrate (native producer)
Text: Here, we characterized the cellobiose and glucose inhibition of TrCel6A and its thermophilic counterpart, CtCel6A [9, 63]. First, the cellobiose inhibition of the synergistic hydrolysis of ^14C-BC by TrCel6A and TrCel5A was studied (Figure 7A). As TrCel6A was less sensitive to cellobiose inhibition than TrCel7A, the contribution of the cellobiose released during hydrolysis was not significant, and an average (DCB/DCB=0) over all time points was used in plotting (DCB/DCB=0) versus [cellobiose] (Figure 7D). No significant systematic variation of DCB/DCB=0 depending on hydrolysis time was observed. As in the case of GH7 CBHs, the IC50 value was found using Equations 5 and 6. Because the IC50 value for synergistic hydrolysis (Table 3) was of the same order as the apparent Ki value reported for TrCel5A [31], we further tested the inhibition of individual TrCel6A. BC is not a good substrate for TrCel6A, but its acid-treated derivative, BMCC, is readily degraded by the enzyme. Therefore, we prepared ^14C-BMCC by the heterogeneous acid hydrolysis of ^14C-BC. Without supplied cellobiose, both enzymes had similar activity with the ^14C-BMCC substrate, but CtCel6A was somewhat more resistant to cellobiose inhibition (Figure 7D, Table 3). The IC50 value for TrCel6A by itself was similar to that found for the synergistic hydrolysis. […]

TaCel7A = TaCel7A (Thermoascus aurantiacus, UniProt A7WNU2); experiment: Cellobiose inhibition of MUL hydrolysis by TaCel7A; type: biochemical; conditions: MUL substrate (5 μM)
Chain of TaCel7A (A7WNU2 entry or part of it): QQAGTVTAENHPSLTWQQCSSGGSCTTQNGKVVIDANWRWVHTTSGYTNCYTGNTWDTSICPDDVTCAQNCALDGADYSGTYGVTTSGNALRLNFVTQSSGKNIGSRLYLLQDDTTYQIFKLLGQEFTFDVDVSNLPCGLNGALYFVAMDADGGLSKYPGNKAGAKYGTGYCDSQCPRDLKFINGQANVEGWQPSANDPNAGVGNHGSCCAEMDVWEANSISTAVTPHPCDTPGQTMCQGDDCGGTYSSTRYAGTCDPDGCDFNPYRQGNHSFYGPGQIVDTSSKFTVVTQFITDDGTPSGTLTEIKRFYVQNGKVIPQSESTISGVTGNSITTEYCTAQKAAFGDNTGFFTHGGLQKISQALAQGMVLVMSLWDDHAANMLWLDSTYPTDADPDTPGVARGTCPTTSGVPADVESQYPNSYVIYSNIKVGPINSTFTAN
Text: The cellobiose inhibition of GH7 CBHs is most often studied on low-Mw model substrates. However, it has been shown that the inhibition of CBHs acting on low-Mw substrates appears to be much stronger than that on cellulose substrates. The Ki values for cellobiose inhibition of GH7 CBHs measured on low-Mw substrates are in the micromolar range [44, 51, 52], whereas those measured on cellulose are in the low- to high-millimolar range [28, 31, 32]. […] Unfortunately, the inhibition of this enzyme on cellulose has not been studied. We also studied the cellobiose inhibition of GH7 CBHs acting on MUL. The initial rates of MUL hydrolysis measured in the presence and absence of added cellobiose were first analyzed according to Equation 1, and the IC50 values were found using Equation 2. […] The inhibition of MUL hydrolysis is attributable to the binding of cellobiose to the product sites (+1/+2) of TrCel7A [52]. […]
For the inhibition of enzyme acting on the low-Mw substrate, the initial rates of the hydrolysis of MUL in the presence and absence of added cellobiose were followed. […] Reactions were stopped by the addition of NH3 (final concentration 0.1 M), and the released 4-methylumbelliferone was quantified by fluorescence using excitation and emission wavelengths of 360 nm and 450 nm, respectively.

T1 sequence (P07987 25-471): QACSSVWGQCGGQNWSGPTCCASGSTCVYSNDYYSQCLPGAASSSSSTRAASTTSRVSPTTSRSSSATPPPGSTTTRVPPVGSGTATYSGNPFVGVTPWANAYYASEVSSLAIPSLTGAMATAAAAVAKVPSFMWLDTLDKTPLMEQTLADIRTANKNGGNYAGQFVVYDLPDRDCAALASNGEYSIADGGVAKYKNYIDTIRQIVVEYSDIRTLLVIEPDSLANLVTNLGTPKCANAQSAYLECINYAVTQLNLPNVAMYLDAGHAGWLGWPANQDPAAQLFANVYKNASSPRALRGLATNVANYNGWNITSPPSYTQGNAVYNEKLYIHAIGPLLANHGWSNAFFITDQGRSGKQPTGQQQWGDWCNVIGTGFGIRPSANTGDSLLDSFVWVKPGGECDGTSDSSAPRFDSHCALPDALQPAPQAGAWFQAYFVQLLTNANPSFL

For `O=C[C@H](O)[C@@H](O)[C@H](O[C@@H]1O[C@H](CO)[C@@H](O)[C@H](O)[C@H]1O)[C@H](O)CO` [cellobiose, Cellobiose], the IC50 (TrCel6A) was 16000 ± 500 µM, the Ki (TaCel7A; 35°C) was 176 µM and the Ki (TaCel7A; 50°C) was 355 µM.

From publication PMC3726336, “Product inhibition of cellulases studied with ^14C-labeled cellulose substrates” (Biotechnology for Biofuels, 2013)
